Results on 1 molecule are retold here after patent US20190040447A1, “Assay for compounds having activity against influenza” (priority 2016, published 2019).

The structures appear in SMILES notation.

The target in this test is RNA-dependent RNA polymerase (RdRp) comprised in an influenza viral ribonucleoprotein (RNP) complex (Influenza A virus, UniProt P03428+P03431+P03433). Description: Influenza filter RNP transcription/replication assay (HTS screen using the method of the invention). Conditions: virus lysate containing native vRNP; which assay (transcription or replication) and which strain are not stated. It is filed as biochemical, Influenza virus (Influenza A/PR/8/34, Influenza B\Lee\40).

`O=C(O)[C@H]1[C@H]2CC[C@H]([C@H]3C[C@H]32)[C@@H]1Nc1nc(-c2n[nH]c3ncc(F)cc23)ncc1F` [(−)-(1R,2S,4R,5S,6S,7S)-7-((5-fluoro-2-(5-fluoro-1H-pyrazolo[3,4-b]pyridin-3-yl)pyrimidin-4-yl)amino)tricyclo[3.2.2.02,4]nonane-6-carboxylic Acid] returned an IC50 of 0.2 nM.

As a reminder, the IC50 is the point on the concentration scale where inhibition reaches its midpoint.
